Laboratory results published in ChEMBL document CHEMBL1137817, “Potential antitumor-promoting diterpenes from the cones of Pinus luchuensis” (J Nat Prod, 2002).

Assays:
Format in all cases: cell-based
[1] = Cytotoxicity against human Raji cells assessed as cell viability at 1000 molar ratio after 48 hours relative to TPA; conditions: read-out: Activity
Raji [2] = assay: Inhibition of 12-O-tetradecanoylphorbol 13-acetate-induced Epstein-Barr virus early antigen activation in human Raji cells assessed as EA induction at 1000 mol ratio relative to TPA; set-up: scale not given: the % may be the effect or the level left; conditions: human gammaherpesvirus 4
Raji [3] = assay: Inhibition of 12-O-tetradecanoylphorbol 13-acetate-induced Epstein-Barr virus early antigen activation in human Raji cells assessed as EA induction at 100 mol ratio relative to TPA; set-up: scale not given: the % may be the effect or the level left; conditions: human gammaherpesvirus 4
Raji [4] = assay: Inhibition of 12-O-tetradecanoylphorbol 13-acetate-induced Epstein-Barr virus early antigen activation in human Raji cells assessed as EA induction at 10 mol ratio relative to TPA; set-up: scale not given: the % may be the effect or the level left; conditions: human gammaherpesvirus 4
Raji [5] = assay: Inhibition of 12-O-tetradecanoylphorbol 13-acetate-induced Epstein-Barr virus early antigen activation in human Raji cells assessed as EA induction at 500 mol ratio relative to TPA; set-up: scale not given: the % may be the effect or the level left; conditions: human gammaherpesvirus 4

SMILES	viability at 48 h, 1000 molar ratio relative to TPA [1] [%]	Activity (Raji [2]) [%]	Activity (Raji [3]) [%]	Activity (Raji [4]) [%]	Activity (Raji [5]) [%]
C=C1CC[C@@H]2[C@](C)(CCC[C@]2(C)C(=O)O)[C@H]1C/C=C(\C)C(=O)O	60	5	74.4	93.4	47.1
C=C1CC[C@@H]2[C@](C)(CCC[C@]2(C)C(=O)O)[C@H]1C/C=C(\C)C=O	70	0	68.5	91.4	31.4
C=C/C(C)=C/C[C@H]1C(=C)CC[C@@H]2[C@]1(C)CCC[C@]2(C)C(=O)O	60	4.4	75.3	90.5	46.2
CC1=C(/C=C/C(C)=C/C=C/C(C)=C/C=C/C=C(C)/C=C/C=C(C)/C=C/C2=C(C)CCCC2(C)C)C(C)(C)CCC1 [BETA CAROTENE]	90	9	82	100	34
CC(C)c1ccc2c(c1)CC[C@H]1[C@](C)(C(=O)O)CCC[C@]21C [DEHYDROABIETIC ACID]	70	2.9	69.8	97.9	32.7
C=C[C@]1(C)C=C2CC[C@@H]3[C@](C)(CCC[C@@]3(C)C(=O)O)[C@H]2CC1 [SANDARACOPIMARIC ACID]	70	0	70.4	91.9	22.5
